Assay results taken from patent US20080242635A1, “Method for Lengthening the Seasonal Mobility Period of Fish” (priority 2005, published 2008).

Legend:
fish = assay: Lengthening the seasonal mobility period of fish by feed supplements; type: in vivo; settings: for Lengthening of the seasonal mobility period of fish (in words): feed supplement
koi fish = assay: Pond test: fish feed to lengthen the period of seasonal mobility of koi (Example 5); type: in vivo; settings: relative index 1 to 5 (1 fully immobile, 5 fully mobile), 10 gram feed per day, additive per Table 1
From the text: Four ponds of 40 cubic meters each, all contained 50 koi fish with an approximate total body weight of 50 kg were used to show effectiveness of the fish feed according to the invention. One pond served as a control were the fish were fed with control feed, the fish in the other ponds received a feed according to the invention as prepared in examples 2 to 4 above. The experiment started when the temperature of the water was about 2 degrees Celsius.
The fish in control pond were fed with 10 gram Cyprico White 3 mm floater feed per day, whereas the fish in the other pond were fed with 10 gram of the feeds as described in Example 2, 3 and 4 Table 1).
This effect increased gradually every day until after 5 days the fish were fully mobile, whereas the temperature of the water was still between 2 and 3 degrees Celsius. Mobility of the fish was scored on a relative index of 1 to 5 wherein 1 is fully immobile and 5 is fully mobile Table 2). The water in the control pond was at exactly the same temperature as that of the other ponds, however the fish in the control pond were completely immobile. […] The fish were healthy and fully mobile whereas the control group was almost fully immobile.
Fish in ponds 1, 2 and 3 were fed with fish feed according to the invention, fish in pond 4 received control feed. Further details are described in the examples.

| Compound | Lengthening of the seasonal mobility period of fish (in words) (fish) | Daily intake, optimum of cost benefit (fish; in vivo) | Mobility (koi fish; day 1, water 2 degrees Celsius) | Mobility (koi fish; day 2, water 2 degrees Celsius) | Mobility (koi fish; day 3, water 3 degrees Celsius) | Mobility (koi fish; day 4, water 3 degrees Celsius) | Mobility (koi fish; day 5, water 3 degrees Celsius) | Mobility (koi fish; day 8, water 3 degrees Celsius) | Mobility (koi fish; day 12, water 3 degrees Celsius) | Mobility (koi fish; day 16, water 4 degrees Celsius) | Mobility (koi fish; day 20, water 5 degrees Celsius) | Mobility (koi fish; day 24, water 5 degrees Celsius) | Mobility (koi fish; day 28, water 6 degrees Celsius) |
| --- | --- | --- | --- | --- | --- | --- | --- | --- | --- | --- | --- | --- | --- |
| 1,3 and 1,6 beta glucans | very useful | around 60 ug/kglw/day | – | – | – | – | – | – | – | – | – | – | – |
| O=C(O)Cc1c[nH]c2ccccc12 [free IAA, indole-3-acetic acid] | Particularly good results | – | 1 | 1 | 1 | 2 | 2 | 3 | 2 | 2 | 3 | 4 | 4 |
